# Results: patent US10420850B2, “Method of imaging with a chelating agent” (ENDOCYTE, INC., priority 2015, dated 2019)
# Test system: FR positive human xenograft models
# Experiment: Mouse imaging: ^99mTc biodistribution and microSPECT/CT
# Format: in vivo
# Settings: intravenous, tumor-bearing mice
# Procedure: Etarfolatide kits were used for the preparation of ^99mTc-chelated radioactive drug substance. Radiochemical purity of ^99mTc-etarfolatide was determined by HPLC attached to a radiodetector. ^99mTc-etarfolatide was investigated in vivo using mice bearing FR positive human xenograft models. Test articles were administered intravenously in mice via the lateral tail vein. ^99mTc biodistribution was determined by removing selected tissues and measuring their radioactivity content in an automatic gamma-counter. High resolution three dimensional images of the radiolabel were obtained on a dual microSPECT/CT system.
compound,measurement,setting,value
[NH-][C@@H](CNC(=O)CC[C@@H](NC(=O)c1ccc(NCc2cnc3nc(N)[nH]c(=O)c3n2)cc1)C(=O)O)C(=O)[N-][C@@H](CC(=O)O)C(=O)[N-][C@@H](C[S-])C(=O)O.[O]=[Tc+4] [^99mTc-etarfolatide],Time after which levels in normal FR-negative tissues had cleared to near baseline,,4 to 8 h
same,Time tumor retention remained near maximum,,approximately 18 hours
same,Time of peak tissue levels post injection,FR-expressing tumor and kidney,1 h
